Experimental data from PubChem BioAssay AID248 (DTP/NCI, 2004).
Several values for one entry are separate records, joined by “and”; a condition that tells them apart may be missing. Equal entries are not always repeated. Inconclusive results and toxic doses are left out. Rule as the data show it: active = T/C of 150% or more; inactive = T/C below 125%.

Tested on: L1210 leukemia ip in BDF1 mice, survival T/C
Assay: NCI In Vivo Anticancer Drug Screen. Data for tumor model L1210 Leukemia (intraperitoneal) in B6D2F1 (BDF1) mice
Details: endpoint: mean survival time, higher = longer survival
In short: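 Read-out is survival time, reported as the treated-group measurement over the vehicle-control measurement.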

[1] = dose: 50.0 mg/kg/injection, schedule: Q04DX003 (ip), vehicle: Klucel (hydroxypropylcellulose) (HPC)
[2] = dose: 100.0 mg/kg/injection, schedule: Q01DX001 (ip), vehicle: saline
[3] = dose: 100.0 mg/kg/injection, schedule: Q04DX003 (ip), vehicle: Klucel (hydroxypropylcellulose) (HPC)
[4] = dose: 200.0 mg/kg/injection, schedule: Q01DX001 (ip), vehicle: saline
[5] = dose: 200.0 mg/kg/injection, schedule: Q04DX003 (ip), vehicle: Klucel (hydroxypropylcellulose) (HPC)
[6] = dose: 400.0 mg/kg/injection, schedule: Q01DX001 (ip), vehicle: saline
[7] = dose: 100.0 mg/kg/injection, schedule: Q01DX009 (ip), vehicle: Klucel (hydroxypropylcellulose) (HPC)
[8] = dose: 200.0 mg/kg/injection, schedule: Q01DX009 (ip), vehicle: Klucel (hydroxypropylcellulose) (HPC)
[9] = dose: 12.5 mg/kg/injection, schedule: Q01DX009 (ip), vehicle: Klucel (hydroxypropylcellulose) (HPC)
[10] = dose: 25.0 mg/kg/injection, schedule: Q01DX009 (ip), vehicle: Klucel (hydroxypropylcellulose) (HPC)
[11] = dose: 100.0 mg/kg/injection, schedule: Q01DX009 (ip), vehicle: saline with Tween-80
[12] = dose: 200.0 mg/kg/injection, schedule: Q01DX009 (ip), vehicle: saline with Tween-80
[13] = dose: 400.0 mg/kg/injection, schedule: Q01DX009 (ip), vehicle: saline with Tween-80
[14] = dose: 100.0 mg/kg/injection, schedule: Q04DX003 (ip), vehicle: saline
[15] = dose: 400.0 mg/kg/injection, schedule: Q04DX003 (ip), vehicle: Klucel (hydroxypropylcellulose) (HPC)
[16] = dose: 100.0 mg/kg/injection, schedule: Q04DX002 (ip), vehicle: saline with Tween-80
[17] = dose: 200.0 mg/kg/injection, schedule: Q04DX002 (ip), vehicle: saline with Tween-80
[18] = dose: 400.0 mg/kg/injection, schedule: Q04DX002 (ip), vehicle: saline with Tween-80
[19] = dose: 100.0 mg/kg/injection, schedule: Q04DX003 (ip), vehicle: saline with Tween-80
[20] = dose: 200.0 mg/kg/injection, schedule: Q04DX003 (ip), vehicle: saline with Tween-80
[21] = dose: 400.0 mg/kg/injection, schedule: Q04DX003 (ip), vehicle: saline with Tween-80

Measured: T/C

COC(c1ccccc1)C(OC)c1ccccc1 (stereo not given)
inactive: [1] 96 % of control | [2] 109 % of control | [3] 98 % of control | [4] 94 % of control | [5] 98 % of control | [6] 103 % of control

CC(=O)OC1CCC2(C)C3CCC4(C)C(C(C)/C=C/C(C)C(C)C)CCC4C34C=CC2(C1)C1C(=O)OC(=O)C14 (stereo not given)
inactive: dose: 100.0 mg/kg/injection, schedule: Q04DX002 (ip), vehicle: saline 93 % of control | dose: 200.0 mg/kg/injection, schedule: Q04DX002 (ip), vehicle: saline 96 % of control | dose: 400.0 mg/kg/injection, schedule: Q04DX002 (ip), vehicle: saline 89 % of control

COC(=O)C(C)[P+](c1ccccc1)(c1ccccc1)c1ccccc1 (stereo not given)
inactive: dose: 1.25 mg/kg/injection, schedule: Q01DX009 (ip), vehicle: saline 108 % of control | dose: 1.65 mg/kg/injection, schedule: Q01DX009 (ip), vehicle: saline 104 % of control and 114 % of control | dose: 2.5 mg/kg/injection, schedule: Q01DX001 (ip), vehicle: saline 96 % of control | dose: 2.5 mg/kg/injection, schedule: Q01DX009 (ip), vehicle: saline 107 % of control and 119 % of control | dose: 3.75 mg/kg/injection, schedule: Q01DX009 (ip), vehicle: saline 109 % of control and 110 % of control | dose: 5.0 mg/kg/injection, schedule: Q01DX001 (ip), vehicle: saline 110 % of control | dose: 5.0 mg/kg/injection, schedule: Q01DX009 (ip), vehicle: saline 97 % of control

CCOC(=O)C(Cl)CCl (stereo not given)
inactive: dose: 50.0 mg/kg/injection, schedule: Q01DX009 (ip), vehicle: Klucel (hydroxypropylcellulose) (HPC) 97 % of control | [7] 100 % of control | [3] 108 % of control | [8] 104 % of control | [5] 97 % of control

COc1ccc(C(=O)CBr)c(OC)c1C
inactive: [9] 94 % of control | dose: 12.5 mg/kg/injection, schedule: Q04DX003 (ip), vehicle: Klucel (hydroxypropylcellulose) (HPC) 100 % of control | [10] 91 % of control | dose: 25.0 mg/kg/injection, schedule: Q04DX003 (ip), vehicle: Klucel (hydroxypropylcellulose) (HPC) 105 % of control | [1] 96 % of control

Nc1ccc2[nH]c(=S)sc2c1
inactive: [11] 104 % of control | [12] 104 % of control | [13] 108 % of control

NC(=O)C(Br)CBr (stereo not given)
inactive: dose: 25.0 mg/kg/injection, schedule: Q01DX009 (ip), vehicle: saline 98 % of control | dose: 50.0 mg/kg/injection, schedule: Q01DX009 (ip), vehicle: saline 95 % of control | [14] 101 % of control

Nc1nc2nc(N=Nc3ccc(S(=O)(=O)O)cc3)[nH]c2c(=O)[nH]1
inactive: [3] 93 % of control | [5] 93 % of control | [15] 93 % of control

O=CC(O)C(O)C(Cl)C(O)CCl (stereo not given)
inactive: [16] 90 % of control | [17] 97 % of control | [18] 93 % of control

O=[N+]([O-])/C=C/c1c[nH]c2ccccc12
inactive: [19] 92 % of control | [20] 106 % of control | [21] 103 % of control

Nc1nc(N)c2ncn(C3CC(CO)C(O)C3O)c2n1 (stereo not given)
inactive: dose: 6.25 mg/kg/injection, schedule: Q01DX009 (ip), vehicle: saline with Tween-80 91 % of control | dose: 12.5 mg/kg/injection, schedule: Q01DX009 (ip), vehicle: saline with Tween-80 98 % of control | dose: 25.0 mg/kg/injection, schedule: Q01DX009 (ip), vehicle: saline with Tween-80 102 % of control

c1ccc(-c2nc(Oc3ccc(Oc4nc(-c5ccccc5)nc(-c5ccccc5)n4)cc3)nc(-c3ccccc3)n2)cc1
inactive: dose: 25.6 mg/kg/injection, schedule: Q04DX002 (ip), vehicle: saline with Tween-80 91 % of control | dose: 64.0 mg/kg/injection, schedule: Q04DX002 (ip), vehicle: saline with Tween-80 97 % of control | dose: 160.0 mg/kg/injection, schedule: Q04DX002 (ip), vehicle: saline with Tween-80 87 % of control | [20] 86 % of control | [18] 97 % of control

COc1cc([N+](=O)[O-])c(C=O)cc1O
inactive: dose: 100.0 mg/kg/injection, schedule: Q01DX009 (ip), vehicle: acetone 97 % of control | dose: 200.0 mg/kg/injection, schedule: Q01DX009 (ip), vehicle: acetone 100 % of control | dose: 400.0 mg/kg/injection, schedule: Q01DX009 (ip), vehicle: acetone 100 % of control

CC1CCCCN1C(=O)c1ccccc1C(=O)O (stereo not given)
inactive: dose: 100.0 mg/kg/injection, schedule: Q04DX002 (ip), vehicle: Klucel (hydroxypropylcellulose) (HPC) 104 % of control | dose: 200.0 mg/kg/injection, schedule: Q04DX002 (ip), vehicle: Klucel (hydroxypropylcellulose) (HPC) 111 % of control

c1ccc(C(NC2=NCCCCCC2)c2ccco2)cc1 (stereo not given)
inactive: [9] 98 % of control | [10] 100 % of control

CCCCCCC(C)O[Si](C)c1ccc(OC)cc1 (stereo not given)
inactive: [11] 107 % of control | [19] 98 % of control | [12] 105 % of control | [20] 101 % of control | [13] 98 % of control | [21] 102 % of control

COc1ccc(N=C(C(=Nc2ccc(OC)cc2)c2ccccc2)c2ccccc2)cc1
inactive: [7] 94 % of control | [3] 96 % of control | [8] 95 % of control | [5] 95 % of control | dose: 400.0 mg/kg/injection, schedule: Q01DX009 (ip), vehicle: Klucel (hydroxypropylcellulose) (HPC) 100 % of control | [15] 95 % of control

[Br][Ga]([Br])[Br]
inactive: [2] 100 % of control | [4] 101 % of control | [6] 103 % of control

CCOC(=O)N1CCN(Cn2cc3c4c(cccc42)C2CC(C(=O)NC(C)C)CN(C)C2C3)CC1 (stereo not given)
inactive: dose: 6.25 mg/kg/injection, schedule: Q04DX003 (ip), vehicle: saline 88 % of control | dose: 12.5 mg/kg/injection, schedule: Q04DX003 (ip), vehicle: saline 97 % of control | dose: 25.0 mg/kg/injection, schedule: Q04DX003 (ip), vehicle: saline 100 % of control | dose: 50.0 mg/kg/injection, schedule: Q04DX003 (ip), vehicle: saline 94 % of control | [14] 97 % of control

COC(=O)c1cc(OC)cc(OC)c1C(=O)c1c(OC)c(Cl)c(C)c(Cl)c1OC
inactive: dose: 50.0 mg/kg/injection, schedule: Q04DX002 (ip), vehicle: saline with Tween-80 110 % of control | [16] 95 % of control | [17] 100 % of control

Cc1cc(Cc2cc(C)c(C)c(C)c2C)c(C)c(C)c1C
inactive: dose: 100.0 mg/kg/injection, schedule: Q01DX001 (ip), vehicle: other 96 % of control | dose: 200.0 mg/kg/injection, schedule: Q01DX001 (ip), vehicle: other 95 % of control | dose: 400.0 mg/kg/injection, schedule: Q01DX001 (ip), vehicle: other 90 % of control

CCCCCCCCCCCCCCCCN(C)S(=O)(=O)c1ccc(Cl)c(C(F)(F)F)c1
inactive: [3] 98 % of control | [5] 101 % of control | [15] 96 % of control
